# Measured values taken from patent publication US10597388B2, “Pyridazinone herbicides” (FMC CORPORATION, priority 2014, dated 2020).
# Key:
# Type in all cases: in vivo
# [1] = tested on: crabgrass, large (large crabgrass, Digitaria sanguinalis); test: Test C greenhouse herbicide test, pre- and postemergence
# Procedure, shortened: (§1)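 Greenhouse pots; pre-em on seeded loam:sand blend, post-em on 2–18 cm plants (1–4 leaf) in sphagnum peat/vermiculite medium. Formulation: non-phytotoxic solvent + surfactant. Read-out: visual % control (0–100) vs controls at 13–15 d.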
# [2] = tested on: wheat (winter wheat, Triticum aestivum); test: as above
# Procedure, shortened: as §1
# [3] = tested on: ragweed (common ragweed, Ambrosia elatior); test: as above
# Procedure, shortened: as §1
# [4] = tested on: ryegrass, Italian (Italian ryegrass, Lolium multiflorum); test: as above
# Procedure, shortened: as §1
# [5] = tested on: galium (catchweed bedstraw, Galium aparine); test: as above
# Procedure, shortened: as §1
# [6] = tested on: lambsquarters (Chenopodium album); test: as above
# Procedure, shortened: as §1
# [7] = tested on: barnyardgrass (Echinochloa crus-galli); test: as above
# Procedure, shortened: as §1
# [8] = tested on: morningglory (Ipomoea coccinea); test: as above
# Procedure, shortened: as §1
# [9] = tested on: johnsongrass (Sorghum halepense); test: as above
# Procedure, shortened: as §1
# [10] = tested on: foxtail, giant (giant foxtail, Setaria faberii); test: as above
# Procedure, shortened: as §1
# [11] = tested on: oilseed rape (Brassica napus); test: as above
# Procedure, shortened: as §1
# [12] = tested on: blackgrass (Alopecurus myosuroides); test: Test A greenhouse herbicide test, postemergence
# Procedure, shortened: (§2)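 Scores are visual injury ratings from 0 (no effect) to 100 (complete control) versus untreated plants, taken roughly 10 d after treatment in the greenhouse. Treatment was postemergence, on one- to two-leaf plants 2–10 cm high growing in a loam soil/sand mix.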
# [13] = tested on: galium (catchweed bedstraw, Galium aparine); test: Test A greenhouse herbicide test, postemergence
# Procedure, shortened: as §2
# [14] = Postemergence, 31 g ai/ha, scale 0 to 100 (0 no effect, 100 complete control)
# [15] = Postemergence, 62 g ai/ha, 0 to 100 scale (0 no effect, 100 complete control)
# [16] = Postemergence, 250 g ai/ha, scale 0 to 100, 0 no effect, 100 complete control, 13 to 15 d
# [17] = Preemergence, 31 g ai/ha, scale 0 to 100, 0 is no effect, 100 is complete control
# [18] = Preemergence, 62 g ai/ha, scale 0 to 100, 0 is no effect, 100 is complete control
# [19] = Preemergence, 125 g ai/ha, scale 0 to 100, 0 is no effect, 100 is complete control
# [20] = Preemergence, 250 g ai/ha, scale 0 to 100, 0 no effect, 100 complete control
# [21] = postemergence, 125 g ai/ha, scale 0 to 100, 0 no effect, 100 complete control
# [22] = 125 g ai/ha, 0 to 100 scale where 0 is no effect and 100 is complete control
# [23] = 500 g ai/ha, visual rating after approx. 10 d, 0 to 100 scale (0 no effect, 100 complete control)
compound,measurement,setting,value
COC(=O)Oc1c(OC)nn(C)c(=O)c1-c1c(C)ccc2ccccc12 [Compound 136],"Plant response rating, Crabgrass, Large",[1]; [14],10
same,"Crabgrass, Large plant response rating",[1]; [15],20
same,"Plant response rating, Crabgrass, Large",[1]; [16],35
same,"Plant response rating, Crabgrass, Large",[1]; [17],0
same,"Plant response rating, Crabgrass, Large",[1]; [18],5
same,"Plant response rating, Crabgrass, Large",[1]; [19],60
same,"Crabgrass, Large plant response rating",[1]; [20],95
same,"Crabgrass, Large plant response rating",[1]; [21],25
same,"Plant response rating, Wheat",[2]; [14],35
same,Wheat plant response rating,[2]; [15],45
same,"Plant response rating, Wheat",[2]; [16],90
same,"Plant response rating, Wheat",[2]; [17],0
same,"Plant response rating, Wheat",[2]; [18],10
same,"Plant response rating, Wheat",[2]; [19],45
same,Wheat plant response rating,[2]; [20],45
same,Wheat plant response rating,[2]; [21],45
same,"Plant response rating, Ragweed",[3]; [14],0
same,Ragweed plant response rating,[3]; [15],0
same,"Plant response rating, Ragweed",[3]; [16],5
same,"Plant response rating, Ragweed",[3]; [17],95
same,"Plant response rating, Ragweed",[3]; [18],98
same,"Plant response rating, Ragweed",[3]; [19],100
same,Ragweed plant response rating,[3]; [20],100
same,Ragweed plant response rating,[3]; [21],0
same,"Plant response rating, Ryegrass, Italian",[4]; [14],5
same,"Ryegrass, Italian plant response rating",[4]; [15],10
same,"Plant response rating, Ryegrass, Italian",[4]; [16],35
same,"Plant response rating, Ryegrass, Italian",[4]; [17],50
same,"Plant response rating, Ryegrass, Italian",[4]; [18],55
same,"Plant response rating, Ryegrass, Italian",[4]; [19],85
same,"Ryegrass, Italian plant response rating",[4]; [20],90
same,"Ryegrass, Italian plant response rating",[4]; [21],30
same,"Plant response rating, Galium",[5]; [14],90
same,Galium plant response rating,[5]; [15],90
same,"Plant response rating, Galium",[5]; [16],95
same,"Plant response rating, Galium",[5]; [17],90
same,"Plant response rating, Galium",[5]; [18],98
same,"Plant response rating, Galium",[5]; [19],100
same,Galium plant response rating,[5]; [20],100
same,Galium plant response rating,[5]; [21],90
same,"Plant response rating, Lambsquarters",[6]; [14],90
same,Lambsquarters plant response rating,[6]; [15],90
same,"Plant response rating, Lambsquarters",[6]; [16],100
same,"Plant response rating, Lambsquarters",[6]; [17],95
same,"Plant response rating, Lambsquarters",[6]; [18],90
same,"Plant response rating, Lambsquarters",[6]; [19],100
same,Lambsquarters plant response rating,[6]; [20],100
same,Lambsquarters plant response rating,[6]; [21],95
same,"Plant response rating, Barnyardgrass",[7]; [14],15
same,Barnyardgrass plant response rating,[7]; [15],25
same,"Plant response rating, Barnyardgrass","[7]; Postemergence, 125 g ai/ha, scale 0 to 100, 0 is no effect, 100 is complete control",35
same,"Plant response rating, Barnyardgrass",[7]; [16],40
same,"Plant response rating, Barnyardgrass",[7]; [17],25
same,"Plant response rating, Barnyardgrass",[7]; [18],50
same,"Plant response rating, Barnyardgrass",[7]; [19],90
same,Barnyardgrass plant response rating,[7]; [20],95
same,"Plant response rating, Morningglory",[8]; [14],98
same,Morningglory plant response rating,[8]; [15],98
same,"Plant response rating, Morningglory",[8]; [16],100
same,"Plant response rating, Morningglory",[8]; [17],80
same,"Plant response rating, Morningglory",[8]; [18],95
same,"Plant response rating, Morningglory",[8]; [19],98
same,Morningglory plant response rating,[8]; [20],98
same,Morningglory plant response rating,[8]; [21],100
same,"Plant response rating, Johnsongrass",[9]; [14],5
same,Johnsongrass plant response rating,[9]; [15],5
same,"Plant response rating, Johnsongrass",[9]; [16],5
same,"Plant response rating, Johnsongrass",[9]; [17],5
same,"Plant response rating, Johnsongrass",[9]; [18],5
same,"Plant response rating, Johnsongrass",[9]; [19],20
same,Johnsongrass plant response rating,[9]; [20],10
same,Johnsongrass plant response rating,[9]; [21],5
same,"Plant response rating, Foxtail, Giant",[10]; [14],35
same,"Foxtail, Giant plant response rating",[10]; [15],45
same,"Plant response rating, Foxtail, Giant",[10]; [16],90
same,"Plant response rating, Foxtail, Giant",[10]; [17],75
same,"Plant response rating, Foxtail, Giant",[10]; [18],85
same,"Plant response rating, Foxtail, Giant",[10]; [19],100
same,"Foxtail, Giant plant response rating",[10]; [20],98
same,"Foxtail, Giant plant response rating",[10]; [21],70
same,"Plant response rating, Oilseed Rape",[11]; [14],95
same,Oilseed Rape plant response rating,[11]; [15],98
same,"Plant response rating, Oilseed Rape",[11]; [16],98
same,"Plant response rating, Oilseed Rape",[11]; [17],10
same,"Plant response rating, Oilseed Rape",[11]; [18],30
same,"Plant response rating, Oilseed Rape",[11]; [19],90
same,Oilseed Rape plant response rating,[11]; [20],100
same,Oilseed Rape plant response rating,[11]; [21],98
same,"Plant response rating, Blackgrass",[12]; [22],60
same,"Plant response rating, Blackgrass",[12]; [23],90
same,"Plant response rating, Galium",[13]; [22],100
same,"Plant response rating, Galium",[13]; [23],100
